According to US20230399342A1 (Incyte Corporation, priority 2022, published 2023):

What was measured:
DGKα = DGKα (Homo sapiens (Human), UniProt P23743); assay: In vitro DGKα inhibition assay (ADP-Glo); type: biochemical; details: His-tagged human recombinant enzyme, 0.1 nM DGKα, 50 μM ATP, 20 μM DLG, 90 minute incubation
Experimental: (§1) The DGKα and DGKξ biochemical reactions were performed using His-tagged human recombinant enzymes (Signal Chem, DGKα, #D21-1OBH; DGKξ, #D30-10H)) and DLG (Dilauroyl-sn-glycerol) lipid substrate (Signal Chem, #D430-59). ADP-Glo assay was performed using ADP-Glog™ kinase Assay kit (Promega, #V9104). The reactions were carried out in assay buffer containing 40 mM Tris, pH 7.5, 0.1% CHAPS, 0.1% Prionex, 40 mM NaCl, 5 mM MgCl2, 1 mM CaCl2, and 1 mM DTT. DGKα reactions contained 0.1 nM DGKα, 50 μM ATP, and 20 μM DLG. And DGKC reactions contained 0.4 nM DGK, 30 μM ATP, and 20 μM DLG.
(§2) For compound inhibition studies, 40 nL test compound in DMSO was added to wells of white polystyrene plates in 384-well (Greiner, #784075) or 1536-well format (Greiner, #782075). Compounds were added with top concentration of 2 mM with 11 point, 3-fold dilution series. Enzyme solution (contains 2×DGK enzyme concentration in Ix assay buffer) was added to the plate in 2 μL/well volume, followed by 2 μL/well of substrate solution (contains 2×concentration of ATP and DLG substrate in Ix assay buffer). Plates were then centrifuged for 1 min at 1200 RPM and sealed or lidded. For 4 μL reaction volume, test compounds were therefore diluted 100× to final top concentration of 20 μM. After 90 minute incubation, reactions were quenched by addition of 2 μL/well Promega ADP-Glo Reagent, followed by centrifugation and lidding. After 60 min incubation, 2 μL/well Promega Kinase Detection Reagent was added, plates centrifuged, and incubated for 30 min. Plates were then read using Luminescence method on BMG PHERAstar FSX plate reader. Percent inhibition was calculated and IC50s were determined using 4-parameter fit in Genedata Screener. Labcyte Echo acoustic dispenser was used for compound addition, and Formulatrix Tempest liquid handler was used for all reagent dispenses.

DGKζ = DGKζ (Homo sapiens (Human), UniProt Q13574); assay: In vitro DGKζ inhibition assay (ADP-Glo); type: biochemical; details: His-tagged human recombinant enzyme, 0.4 nM DGK, 30 μM ATP, 20 μM DLG, 90 minute incubation
Experimental: as §1, §2

Sequence of DGKζ (Q13574 whole entry): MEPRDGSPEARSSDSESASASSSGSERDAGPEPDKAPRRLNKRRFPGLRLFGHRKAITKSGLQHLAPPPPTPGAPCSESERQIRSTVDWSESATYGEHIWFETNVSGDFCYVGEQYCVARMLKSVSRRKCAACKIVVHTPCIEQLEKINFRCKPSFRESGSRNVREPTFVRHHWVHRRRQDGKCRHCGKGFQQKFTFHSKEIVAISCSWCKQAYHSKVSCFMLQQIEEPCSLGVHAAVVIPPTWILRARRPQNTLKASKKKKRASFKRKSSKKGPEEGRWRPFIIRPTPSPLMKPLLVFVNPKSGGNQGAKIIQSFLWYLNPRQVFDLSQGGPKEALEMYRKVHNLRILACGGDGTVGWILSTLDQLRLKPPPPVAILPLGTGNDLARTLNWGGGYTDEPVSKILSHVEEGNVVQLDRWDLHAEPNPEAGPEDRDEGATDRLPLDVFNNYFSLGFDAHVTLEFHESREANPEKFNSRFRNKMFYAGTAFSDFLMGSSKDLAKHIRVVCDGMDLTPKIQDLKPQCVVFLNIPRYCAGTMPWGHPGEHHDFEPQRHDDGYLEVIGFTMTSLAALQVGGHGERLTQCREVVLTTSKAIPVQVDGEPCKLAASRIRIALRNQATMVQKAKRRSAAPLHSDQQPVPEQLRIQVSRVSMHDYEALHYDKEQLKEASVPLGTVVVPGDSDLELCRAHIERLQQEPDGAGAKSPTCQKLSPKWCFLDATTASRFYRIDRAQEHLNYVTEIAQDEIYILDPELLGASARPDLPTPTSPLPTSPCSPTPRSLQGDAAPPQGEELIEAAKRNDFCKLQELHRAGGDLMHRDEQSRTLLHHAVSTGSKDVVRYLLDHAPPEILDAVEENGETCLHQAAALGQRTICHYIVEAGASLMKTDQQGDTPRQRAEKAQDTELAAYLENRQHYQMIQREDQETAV
Sequence of DGKα (P23743 whole entry): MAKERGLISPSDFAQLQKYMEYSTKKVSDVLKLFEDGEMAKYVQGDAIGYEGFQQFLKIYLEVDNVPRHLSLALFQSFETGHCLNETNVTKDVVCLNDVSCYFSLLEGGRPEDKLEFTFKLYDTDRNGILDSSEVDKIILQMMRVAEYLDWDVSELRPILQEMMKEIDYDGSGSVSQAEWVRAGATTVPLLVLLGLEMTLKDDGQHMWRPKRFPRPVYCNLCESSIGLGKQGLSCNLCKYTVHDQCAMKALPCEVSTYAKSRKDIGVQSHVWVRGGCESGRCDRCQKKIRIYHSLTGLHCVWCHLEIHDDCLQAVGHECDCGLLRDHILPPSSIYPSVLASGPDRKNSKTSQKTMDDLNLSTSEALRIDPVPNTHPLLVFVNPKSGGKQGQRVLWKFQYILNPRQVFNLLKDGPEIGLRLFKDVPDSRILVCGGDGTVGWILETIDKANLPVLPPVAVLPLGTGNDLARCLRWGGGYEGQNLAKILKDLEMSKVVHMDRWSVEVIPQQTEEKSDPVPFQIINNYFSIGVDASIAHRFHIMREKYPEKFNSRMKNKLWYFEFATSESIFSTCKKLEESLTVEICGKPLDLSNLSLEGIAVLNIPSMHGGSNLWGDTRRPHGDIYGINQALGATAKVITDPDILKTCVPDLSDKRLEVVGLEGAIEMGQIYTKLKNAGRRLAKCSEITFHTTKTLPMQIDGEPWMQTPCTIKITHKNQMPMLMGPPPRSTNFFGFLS

| IC50 (DGKα) | IC50 (DGKζ) | SMILES |
| --- | --- | --- |
| ≤ 20 nM | ≤ 20 nM | Cc1nc2c(N3C[C@@H](C)N(C(c4cc(F)c(F)c(F)c4)C4CC(F)(F)C4)C[C@@H]3C)nc3nncn3c2n1C[C@@H]1CCCO1 (stereo partly drawn) [Example 52, 4-((2S,5R)-4-((3,3-Difluorocyclobutyl)(3,4,5-trifluorophenyl)methyl)-2,5-dimethylpiperazin-1-yl)-2-methyl-1-(((S)-tetrahydrofuran-2-yl)methyl)-1H-[1,2,4]triazolo[3,4-b]purine] |
| ≤ 20 nM | ≤ 20 nM | Cc1nc2c(N3C[C@@H](C)N(C(c4ccc(C(F)F)c(F)c4)C(C)C)C[C@@H]3C)nc3nncn3c2n1C[C@@H]1CCCO1 (single isomer, unassigned) [Example 81] |
| ≤ 20 nM | ≤ 20 nM | Cc1nc2c(N3C[C@@H](C)N(C(c4ccc(F)c(Cl)c4)C4CC(F)(F)C4)C[C@@H]3C)nc3nncn3c2n1C[C@@H]1CCCO1 (single isomer, unassigned) [Example 44] |
| ≤ 20 nM | ≤ 20 nM | CC[C@@H]1CN(c2nc3nncn3c3c2nnn3C[C@@H]2CCCO2)[C@@H](C)CN1C(c1ccc(F)cc1)C1CC(F)(F)C1 (single isomer, unassigned) [Example 120] |
| ≤ 20 nM | ≤ 20 nM | CC[C@@H]1CN(c2nc3nncn3c3c2nc(C)n3C[C@@H]2CCCO2)[C@@H](C)CN1[C@H](c1ccc(OC(F)(F)F)cc1)C(C)C [Example 130, 4-((2S,5R)-5-ethyl-2-methyl-4-((S)-2-methyl-1-(4-(trifluoromethoxy)phenyl)propyl)piperazin-1-yl)-2-methyl-1-(((S)-tetrahydrofuran-2-yl)methyl)-1H-[1,2,4]triazolo[3,4-b]purine] |
| ≤ 20 nM | ≤ 20 nM | CC[C@@H]1CN(c2nc3nncn3c3c2nnn3C[C@H]2CCCO2)[C@@H](C)CN1C(c1ccc(F)cc1)c1ccc(F)cc1 [Example 32, 4-((2S,5R)-4-(Bis(4-fluorophenyl)methyl)-5-ethyl-2-methylpiperazin-1-yl)-1-(((R)-tetrahydrofuran-2-yl)methyl)-1H-[1,2,3]triazolo[4,5-e][1,2,4]triazolo[4,3-a]pyrimidine] |
| ≤ 20 nM | ≤ 20 nM | Cc1nc2c(N3C[C@@H](C)N(C(c4ccc(Br)c(F)c4)C4CC(F)(F)C4)C[C@@H]3C)nc3nncn3c2n1C[C@@H]1CCCO1 (stereo partly drawn) [Example 63, 4-((2S,5R)-4-((4-Bromo-3-fluorophenyl)(3,3-difluorocyclobutyl)methyl)-2,5-dimethylpiperazin-1-yl)-2-methyl-1-(((S)-tetrahydrofuran-2-yl)methyl)-1H-[1,2,4]triazolo[3,4-b]purine] |
| ≤ 20 nM | ≤ 20 nM | Cc1nc2c(N3C[C@@H](C)N([C@@H](c4ccc(OC(F)F)cc4F)C(C)C)C[C@@H]3C)nc3nncn3c2n1C[C@@H]1CCCO1 [Example 76, 4-((2S,5R)-4-((R)-1-(4-(difluoromethoxy)-2-fluorophenyl)-2-methylpropyl)-2,5-dimethylpiperazin-1-yl)-2-methyl-1-(((S)-tetrahydrofuran-2-yl)methyl)-1H-[1,2,4]triazolo[3,4-b]purine] |
| ≤ 20 nM | ≤ 20 nM | C[C@@H]1CN(c2nc3nncn3c3c2nnn3C[C@@H]2CCCO2)[C@@H](C)CN1C(c1ccc(Br)cc1)c1ccc(Br)cc1 [Example 111, 4-((2S,5R)-4-(Bis(4-bromophenyl)methyl)-2,5-dimethylpiperazin-1-yl)-1-(((S)-tetrahydrofuran-2-yl)methyl)-1H-[1,2,3]triazolo[4,5-e][1,2,4]triazolo[4,3-a]pyrimidine] |
| ≤ 20 nM | ≤ 20 nM | Cc1cc(C(C2CC(F)(F)C2)N2C[C@H](C)N(c3nc4nncn4c4c3nc(C)n4C[C@@H]3CCCO3)C[C@H]2C)ccc1C(F)(F)F (stereo partly drawn) [Example 55, 4-((2S,5R)-4-((3,3-Difluorocyclobutyl)(3-methyl-4-(trifluoromethyl)phenyl)methyl)-2,5-dimethylpiperazin-1-yl)-2-methyl-1-(((S)-tetrahydrofuran-2-yl)methyl)-1H-[1,2,4]triazolo[3,4-b]purine] |
| ≤ 20 nM | ≤ 20 nM | Cc1nc2c(N3C[C@@H](C)N([C@H](c4ccc(C(F)(F)F)cc4)C(C)C)C[C@@H]3C)nc3nncn3c2n1C[C@@H]1CCCO1 [Example 67, 4-((2S,5R)-2,5-Dimethyl-4-((S)-2-methyl-1-(4-(trifluoromethyl)phenyl)propyl)piperazin-1-yl)-2-methyl-1-(((S)-tetrahydrofuran-2-yl)methyl)-1H-[1,2,4]triazolo[3,4-b]purine] |
| ≤ 20 nM | ≤ 20 nM | C[C@@H]1CN(c2nc3nncn3c3c2ncn3CCN(C)C)[C@@H](C)CN1C(c1ccc(C(F)(F)F)cn1)c1ccc(C(F)(F)F)cn1 [Example 112, 2-(4-((2S,5R)-4-(Bis(5-(trifluoromethyl)pyridin-2-yl)methyl)-2,5-dimethylpiperazin-1-yl)-1H-[1,2,4]triazolo[3,4-b]purin-1-yl)-N,N-dimethylethan-1-amine] |
| ≤ 20 nM | ≤ 20 nM | Cc1nc2c(N3C[C@@H](C)N(C(c4cc(F)c(C(F)(F)F)cc4F)C4CC(F)(F)C4)C[C@@H]3C)nc3nncn3c2n1C[C@@H]1CCCO1 (stereo partly drawn) [Example 56, 4-((2S,5R)-4-((2,5-Difluoro-4-(trifluoromethyl)phenyl)(3,3-difluorocyclobutyl)methyl)-2,5-dimethylpiperazin-1-yl)-2-methyl-1-(((S)-tetrahydrofuran-2-yl)methyl)-1H-[1,2,4]triazolo[3,4-b]purine] |
| ≤ 20 nM | ≤ 20 nM | Cc1nc2c(N3C[C@@H](C)N(C(c4ccc(C(F)(F)F)c(Cl)c4)C4CC(F)(F)C4)C[C@@H]3C)nc3nncn3c2n1C[C@@H]1CCCO1 (stereo partly drawn) [Example 58, 4-((2S,5R)-4-((3-Chloro-4-(trifluoromethyl)phenyl)(3,3-difluorocyclobutyl)methyl)-2,5-dimethylpiperazin-1-yl)-2-methyl-1-(((S)-tetrahydrofuran-2-yl)methyl)-1H-[1,2,4]triazolo[3,4-b]purine] |
| ≤ 20 nM | ≤ 20 nM | Cc1nc2c(N3C[C@@H](C)N(C(c4ccc(Cl)cc4)c4ccc(F)c(Cl)c4)C[C@@H]3C)nc3nncn3c2n1C[C@@H]1CCCO1 (single isomer, unassigned) [Example 140] |
| ≤ 20 nM | ≤ 20 nM | Cc1nc2c(N3C[C@@H](C)N([C@@H](c4ccc(Br)cc4)C(C)C)C[C@@H]3C)nc3nncn3c2n1C[C@@H]1CCCO1 [Example 139, 4-((2S,5R)-4-((R)-1-(4-bromophenyl)-2-methylpropyl)-2,5-dimethylpiperazin-1-yl)-2-methyl-1-(((S)-tetrahydrofuran-2-yl)methyl)-1H-[1,2,4]triazolo[3,4-b]purine] |
| ≤ 20 nM | ≤ 20 nM | C[C@@H]1CN(c2nc3nncn3c3c2ncn3CCN(C)C)[C@@H](C)CN1C(c1ccc(Br)cc1)C1CC(F)(F)C1 (stereo partly drawn) [Example 65, 2-(4-((2S,5R)-4-((4-Bromophenyl)(3,3-difluorocyclobutyl)methyl)-2,5-dimethylpiperazin-1-yl)-1H-[1,2,4]triazolo[3,4-b]purin-1-yl)-N,N-dimethylethan-1-amine] |
| ≤ 20 nM | ≤ 20 nM | Cc1nc2c(N3C[C@@H](C)N(C(c4ccc(F)c(Br)c4)C4CC(F)(F)C4)C[C@@H]3C)nc3nncn3c2n1C[C@@H]1CCCO1 (stereo partly drawn) [Example 62, 4-((2S,5R)-4-((3-Bromo-4-fluorophenyl)(3,3-difluorocyclobutyl)methyl)-2,5-dimethylpiperazin-1-yl)-2-methyl-1-(((S)-tetrahydrofuran-2-yl)methyl)-1H-[1,2,4]triazolo[3,4-b]purine] |
| ≤ 20 nM | ≤ 20 nM | C[C@@H]1CN(c2nc3nncn3c3c2ncn3CCN(C)C)[C@@H](C)CN1[C@H](c1ccc(C(F)(F)F)cc1)c1ccc(C(F)(F)F)cn1 [Example 102, 2-(4-((2S,5R)-2,5-dimethyl-4-((R)-(4-(trifluoromethyl)phenyl)(5-(trifluoromethyl)pyridin-2-yl)methyl)piperazin-1-yl)-1H-[1,2,4]triazolo[3,4-b]purin-1-yl)-N,N-dimethylethan-1-amine] |
| ≤ 20 nM | ≤ 20 nM | Cc1nc2c(N3C[C@@H](C)N(C(c4ccc(F)cc4)c4ccc(F)cc4)C[C@@H]3C)nc3nncn3c2n1C[C@@H]1CCCO1 [Example 19, 4-((2S,5R)-4-(Bis(4-fluorophenyl)methyl)-2,5-dimethylpiperazin-1-yl)-2-methyl-1-(((S)-tetrahydrofuran-2-yl)methyl)-1H-[1,2,4]triazolo[3,4-b]purine] |
